Test results published in patent US12060347B2 (BRISTOL-MYERS SQUIBB COMPANY, priority 2016, dated 2024).

What follows are molecules tested against T1, human PAR4 (Homo sapiens, UniProt Q96RI0) (assay: PAR4 FLIPR assay: antagonism of agonist-peptide-induced calcium mobilization in PAR4-expressing HEK293 cells). Settings: H-Ala-Phe(4-F)-[…]NH2-induced intracellular calcium mobilization, 11-point curves.
T1 construct: expressed in transfected cells; host or cells: HEK293 PAR4 Clone 1.2A (BMS Arctic ID 383940)
T1 sequence (Q96RI0 18-385): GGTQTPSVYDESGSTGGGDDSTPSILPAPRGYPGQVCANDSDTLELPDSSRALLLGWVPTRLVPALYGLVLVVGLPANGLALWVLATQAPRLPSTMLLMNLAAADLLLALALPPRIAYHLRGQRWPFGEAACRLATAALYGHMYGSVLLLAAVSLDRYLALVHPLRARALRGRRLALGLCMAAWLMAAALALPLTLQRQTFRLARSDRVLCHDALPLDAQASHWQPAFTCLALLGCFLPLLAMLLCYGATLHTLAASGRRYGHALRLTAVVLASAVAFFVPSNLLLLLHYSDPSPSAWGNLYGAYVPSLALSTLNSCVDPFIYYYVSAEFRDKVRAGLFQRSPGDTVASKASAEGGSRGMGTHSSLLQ
Type: cell-based

In order of falling IC50:
1. COc1cnc2c(-c3nc4cc(F)c(OC[C@@H](C)OC(=O)Nc5cnc(C)c(CO)c5)cc4s3)cc(C)cc2n1 [Example 544, (R)-1-((5-fluoro-2-(2-methoxy-7-methylquinoxalin-5-yl)benzo[d]thiazol-6-yl)oxy)propan-2-yl (5-(hydroxymethyl)-6-methylpyridin-3-yl)carbamate]  34 nM
2. COc1cnc2c(-c3nc4cc(F)c(OC[C@@H](C)OC(=O)Nc5ccc(CO)nc5)cc4s3)cc(C)cc2n1 [Example 546, (R)-1-((5-fluoro-2-(2-methoxy-7-methylquinoxalin-5-yl)benzo[d]thiazol-6-yl)oxy)propan-2-yl (6-(hydroxymethyl)pyridin-3-yl)carbamate]  14 nM
3. COc1cnc2c(-c3nc4cc(F)c(O[C@@H](C)[C@@H](C)OC(=O)Nc5cnc(CO)nc5)cc4s3)cc(Cl)cc2c1 [Example 539, (2R,3S)-3-((2-(6-chloro-3-methoxyquinolin-8-yl)-5-fluorobenzo[d]thiazol-6-yl)oxy)butan-2-yl (2-(hydroxymethyl)pyrimidin-5-yl)carbamate]  6.5 nM
4. CCOc1cnc2c(-c3nc4cc(F)c(O[C@@H](C)[C@@H](C)OC(=O)Nc5cnc([C@H](C)O)nc5)cc4s3)cc(C)cc2n1 [Example 535, (2R,3S)-3-((2-(2-ethoxy-7-methylquinoxalin-5-yl)-5-fluorobenzo[d]thiazol-6-yl)oxy)butan-2-yl (2-((S)-1-hydroxyethyl)pyrimidin-5-yl)carbamate]  5.2 nM
5. COc1cnc2c(-c3nc4cc(F)c(O[C@@H](C)[C@@H](C)OC(=O)Nc5ccnc(CCO)c5)cc4s3)cc(C)cc2n1 [Example 547, (2R,3S)-3-((5-fluoro-2-(2-methoxy-7-methylquinoxalin-5-yl)benzo[d]thiazol-6-yl)oxy)butan-2-yl (2-(2-hydroxyethyl)pyridin-4-yl)carbamate]  5.2 nM
6. CCOc1cnc2c(-c3nc4cc(F)c(O[C@@H](C)[C@@H](C)OC(=O)Nc5cnc([C@@H](C)O)nc5)cc4s3)cc(C)cc2n1 [Example 536, (2R,3S)-3-((2-(2-ethoxy-7-methylquinoxalin-5-yl)-5-fluorobenzo[d]thiazol-6-yl)oxy) butan-2-yl (2-((R)-1-hydroxyethyl)pyrimidin-5-yl)carbamate]  4.9 nM
7. COc1cnc2c(-c3nc4cc(F)c(O[C@@H](C)[C@@H](C)OC(=O)Nc5cnc(OC[C@H](C)O)nc5)cc4s3)cc(Cl)cc2c1 [Example 541, (2R,3S)-3-((2-(6-chloro-3-methoxyquinolin-8-yl)-5-fluorobenzo[d]thiazol-6-yl)oxy)butan-2-yl (2-((S)-2-hydroxypropoxy)pyrimidin-5-yl)carbamate]  3.4 nM
8. COc1cnc2c(-c3nc4cc(F)c(O[C@@H](C)[C@@H](C)OC(=O)Nc5cnc(OC[C@@H](C)O)nc5)cc4s3)cc(Cl)cc2c1 [Example 540, (2R,3S)-3-((2-(6-chloro-3-methoxyquinolin-8-yl)-5-fluorobenzo[d]thiazol-6-yl)oxy)butan-2-yl (2-((R)-2-hydroxypropoxy)pyrimidin-5-yl)carbamate]  3 nM
9. CCOc1cnc2c(-c3nc4cc(F)c(O[C@@H](C)[C@@H](C)OC(=O)Nc5cnc(COP(=O)(O)O)nc5)cc4s3)cc(C)cc2n1 [Example 532, (2R,3S)-3-((2-(2-ethoxy-7-methylquinoxalin-5-yl)-5-fluorobenzo[d]thiazol-6-yl)oxy)butan-2-yl (2-((phosphonooxy)methyl)pyrimidin-5-yl)carbamate]  1.7 nM
10. COc1cnc2c(-c3nc4c(Cl)c(F)c(OC[C@@H](C)OC(=O)Nc5ccc(CCO)nc5)cc4s3)cc(C)cc2n1 [Example 542, (R)-1-((4-chloro-5-fluoro-2-(2-methoxy-7-methylquinoxalin-5-yl)benzo[d]thiazol-6-yl)oxy)propan-2-yl (6-(2-hydroxyethyl)pyridin-3-yl)carbamate]  1.6 nM
11. COc1cnc2c(-c3nc4cc(F)c(OC[C@@H](C)OC(=O)Nc5ccnc(CCO)c5)cc4s3)cc(C)cc2n1 [Example 545, (R)-1-((5-fluoro-2-(2-methoxy-7-methylquinoxalin-5-yl)benzo[d]thiazol-6-yl)oxy)propan-2-yl (2-(2-hydroxyethyl)pyridin-4-yl)carbamate]  1.5 nM
12. COc1cnc2c(-c3nc4cc(F)c(OC[C@@H](C)OC(=O)Nc5ccc(CCO)nc5)cc4s3)cc(C)cc2n1 [Example 543, (R)-1-((5-fluoro-2-(2-methoxy-7-methylquinoxalin-5-yl)benzo[d]thiazol-6-yl)oxy)propan-2-yl (6-(2-hydroxyethyl)pyridin-3-yl)carbamate]  1.3 nM
13. COc1cnc2c(-c3nc4cc(F)c(OC[C@@H](C)OC(=O)Nc5cnc(O[C@H](C)CO)nc5)cc4s3)cc(C)cc2n1 [Example 553, (R)-1-((5-fluoro-2-(2-methoxy-7-methylquinoxalin-5-yl)benzo[d]thiazol-6-yl)oxy)propan-2-yl (2-(((R)-1-hydroxypropan-2-yl)oxy)pyrimidin-5-yl)carbamate]  1.2 nM
14. COc1cnc2c(-c3nc4cc(F)c(O[C@@H](C)[C@@H](C)OC(=O)Nc5ccnc(O[C@H](C)CO)c5)cc4s3)cc(C)cc2n1 [Example 549, (2R,3S)-3-((5-fluoro-2-(2-methoxy-7-methylquinoxalin-5-yl)benzo[d]thiazol-6-yl)oxy)butan-2-yl (2-(((R)-1-hydroxypropan-2-yl)oxy)pyridin-4-yl)carbamate]  1 nM
15. COc1cnc2c(-c3nc4cc(F)c(O[C@@H](C)[C@@H](C)OC(=O)Nc5cncc(OCCO)c5)cc4s3)cc(C)cc2n1 [Example 534, (2R,3S)-3-((5-fluoro-2-(2-methoxy-7-methylquinoxalin-5-yl)benzo[d]thiazol-6-yl)oxy) butan-2-yl (5-(2-hydroxyethoxy)pyridin-3-yl)carbamate]  0.9 nM
16. COc1cnc2c(-c3nc4cc(F)c(O[C@@H](C)[C@@H](C)OC(=O)Nc5cncc(O)c5)cc4s3)cc(C)cc2n1 [Example 533, (2R,3S)-3-((5-fluoro-2-(2-methoxy-7-methylquinoxalin-5-yl)benzo[d]thiazol-6-yl)oxy)butan-2-yl (5-hydroxypyridin-3-yl)carbamate]  0.7 nM
17. COc1cnc2c(-c3nc4cc(F)c(OC[C@@H](C)OC(=O)Nc5ccnc(OCCO)c5)cc4s3)cc(C)cc2n1 [Example 552, (R)-1-((5-fluoro-2-(2-methoxy-7-methylquinoxalin-5-yl)benzo[d]thiazol-6-yl)oxy)propan-2-yl (2-(2-hydroxyethoxy)pyridin-4-yl)carbamate]  0.7 nM
18. COc1cnc2c(-c3nc4cc(F)c(O[C@@H](C)[C@@H](C)OC(=O)Nc5cnc(O[C@H](C)CO)nc5)cc4s3)cc(C)cc2n1 [Example 554, (2R,3S)-3-((5-fluoro-2-(2-methoxy-7-methylquinoxalin-5-yl)benzo[d]thiazol-6-yl)oxy)butan-2-yl (2-(((R)-1-hydroxypropan-2-yl)oxy)pyrimidin-5-yl)carbamate]  0.7 nM
19. COc1cnc2c(-c3nc4cc(F)c(O[C@@H](C)[C@@H](C)OC(=O)Nc5ccnc(OC[C@@H](C)O)c5)cc4s3)cc(C)cc2n1 [Example 550, (2R,3S)-3-((5-fluoro-2-(2-methoxy-7-methylquinoxalin-5-yl)benzo[d]thiazol-6-yl)oxy)butan-2-yl (2-((R)-2-hydroxypropoxy)pyridin-4-yl)carbamate]  0.4 nM
